The record followed here is patent US20140005163A1 (NOVARTIS AG, priority 2010, published 2014).

Converted amounts (≈) assume the structure as drawn. Where two headings read alike, the source gives them in different places.

One data set is described as follows: Solubility at pH 6.8. Format: physicochemical. The procedure, abridged: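 Solubility was measured at pH 6.8 following the cited Zhou et al. (2007) procedure.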
The target in the next data set is T1, PI3K beta (Homo sapiens, UniProt P42338).
T1 construct: for the full-length p110-b subunit are generated and fused by overlapping PCR; p85(iSH2) fusion partner (see partner chain) (N); His tag (C); made in house; host or cells: baculovirus; Tn5 (Trichoplusia ni) or TiniPro insect cells
Put plainly: PI3K beta kinase assay (Kinase-Glo luminescence). Format: biochemical. The procedure, abridged: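 Enzyme: BV949 p85(iSH2)-Gly linker-p110β FL-His, 25 nM. Substrate: PI 10 μg/mL. ATP: 1 μM, added to start. Buffer: Tris pH 7.5 10 mM, MgCl2 3 mM, NaCl 50 mM, CHAPS 0.05%, DTT 1 mM. RT, 60 min. Readout: Kinase-Glo. IC50 by 4-parameter fit.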
In general terms: Kinase-Glo reads ATP consumption through a luciferase reaction.

In data set [1] the test system is PKB Ser473 phosphorylation in Rat1-myr-HA-p110 alpha cells. Put plainly: Reverse protein array assay, PKB Ser473 phosphorylation in Rat1-myr-p110 alpha cells. Format: cell-based. To be noted: 0.5 h, pAkt Ser473, 30 minutes compound incubation, read-out: p-PKB IC50. The procedure, abridged:
(§1)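 Measured: PKB Ser473 phosphorylation by reverse protein array in Rat1 cells expressing myr-HA-p110 alpha, beta or delta, after 30 min compound treatment at 37 °C with 0.2% DMSO vehicle.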

For data set [2], the system named is PKB Ser473 phosphorylation in Rat1-myr-HA-p110 beta cells. Put plainly: Reverse protein array assay, PKB Ser473 phosphorylation in Rat1-myr-p110 beta cells. It is filed as cell-based. To be noted: 0.5 h, pAkt Ser473, 30 minutes incubation, read-out: p-PKB IC50. In outline:
as §1

The test system of data set [3] is PKB Ser473 phosphorylation in Rat1-myr-HA-p110 delta cells. Briefly: Reverse protein array assay, PKB Ser473 phosphorylation in Rat1-myr-p110 delta cells. The following applies: read-out: p-PKB IC50. It is filed as cell-based. The procedure, abridged: as §1
Where [4] appears, read: pH 6.8, aqueous buffer, thermodynamic from solid, read-out: solubility.

T1 sequence (P42338 with tags, fused parts or gaps limits assumed): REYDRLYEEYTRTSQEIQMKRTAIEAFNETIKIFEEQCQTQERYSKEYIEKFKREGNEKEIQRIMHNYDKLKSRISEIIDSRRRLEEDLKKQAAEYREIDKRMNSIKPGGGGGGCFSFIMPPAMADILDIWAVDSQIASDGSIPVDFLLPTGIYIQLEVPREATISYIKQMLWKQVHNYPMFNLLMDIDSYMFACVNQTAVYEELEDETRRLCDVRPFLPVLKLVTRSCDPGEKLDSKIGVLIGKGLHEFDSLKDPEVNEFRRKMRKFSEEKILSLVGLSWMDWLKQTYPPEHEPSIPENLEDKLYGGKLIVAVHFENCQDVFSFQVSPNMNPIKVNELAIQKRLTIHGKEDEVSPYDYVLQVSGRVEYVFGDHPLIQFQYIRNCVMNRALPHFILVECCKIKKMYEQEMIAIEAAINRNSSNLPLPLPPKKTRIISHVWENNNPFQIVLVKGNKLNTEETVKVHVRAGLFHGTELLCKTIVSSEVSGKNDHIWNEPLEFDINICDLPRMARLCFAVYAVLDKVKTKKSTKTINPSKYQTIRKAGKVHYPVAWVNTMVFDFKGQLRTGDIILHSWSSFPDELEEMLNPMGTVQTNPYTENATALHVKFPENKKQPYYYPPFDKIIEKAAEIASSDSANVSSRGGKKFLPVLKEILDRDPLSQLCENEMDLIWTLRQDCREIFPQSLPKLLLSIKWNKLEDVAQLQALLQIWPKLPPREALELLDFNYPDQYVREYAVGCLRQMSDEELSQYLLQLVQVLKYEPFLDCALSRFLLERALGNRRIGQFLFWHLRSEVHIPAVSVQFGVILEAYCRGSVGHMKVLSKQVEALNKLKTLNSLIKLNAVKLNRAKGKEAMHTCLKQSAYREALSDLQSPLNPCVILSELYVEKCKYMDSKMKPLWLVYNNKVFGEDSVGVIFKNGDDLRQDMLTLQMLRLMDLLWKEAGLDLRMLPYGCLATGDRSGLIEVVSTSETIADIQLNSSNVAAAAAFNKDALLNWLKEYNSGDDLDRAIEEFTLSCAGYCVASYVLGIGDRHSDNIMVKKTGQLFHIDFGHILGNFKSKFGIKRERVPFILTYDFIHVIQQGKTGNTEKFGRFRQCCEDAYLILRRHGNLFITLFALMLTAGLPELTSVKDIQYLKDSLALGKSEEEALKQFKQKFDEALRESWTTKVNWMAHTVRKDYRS

For the compound `CCOc1cc(-c2ccc3ncc4c(c3c2)n(-c2c(C)nn(C)c2C)c(=O)n4C)ccc1OC` [Example 28.2, 8-(3-Ethoxy-4-methoxy-phenyl)-3-methyl-1-(1,3,5-trimethyl-1H-pyrazol-4-yl)-1,3-dihydro-imidazo[4,5-c]quinolin-2-one], the solubility (in general, the concentration that dissolves in the medium under given conditions) in “Solubility at pH 6.8” (setting [4]) is 3 µg/mL (≈ 6.56 µM). Also, the IC50 (in general, the concentration that gives 50% inhibition) at PI3K beta worked out at 132 nM; in data set [1], 76 nM; in data set [2], 125 nM; in data set [3] it was 212 nM.

With `CCOc1cc(-c2ccc3ncc4c(c3c2)n(-c2cn(C)nc2C)c(=O)n4C)ccc1OC` [Example 28.3, 1-(1,3-Dimethyl-1H-pyrazo1-4-yl)-8-(3-ethoxy-4-methoxy-phenyl)-3-methyl-1,3-dihydro-imidazo[4,5-c]quinolin-2-one], the solubility in the data set “Solubility at pH 6.8” (pH 6.8) amounted to 2 µg/mL (≈ 4.51 µM). Besides, the 50% inhibitory concentration (IC50) came out at 31 nM on PI3K beta, 9 nM in data set [1], 15 nM in data set [2] and 24 nM in data set [3].

`CCOc1ccc(-c2ccc3ncc4c(c3c2)n(-c2cn(C)nc2C)c(=O)n4C)cc1OC` [Example 29.3, 1-(1,3-Dimethyl-1H-pyrazol-4-yl)-8-(4-ethoxy-3-methoxy-phenyl)-3-methyl-1,3-dihydro-imidazo[4,5-c]quinolin-2-one] returned a solubility in the data set “Solubility at pH 6.8” (pH 6.8) of 2 µg/mL (≈ 4.51 µM). The 50% inhibitory concentration (IC50) stood at 144 nM on PI3K beta, 8 nM in data set [1], 15 nM in data set [2] and 38 nM in data set [3].

On to `CCn1cc(-n2c(=O)n(C)c3cnc4ccc(-c5ccc(OCCOC)c(OC)c5)cc4c32)c(C)n1` [Example 30.2, 1-(1-Ethyl-3-methyl-1H-pyrazol-4-yl)-8-[3-methoxy-4-(2-methoxy-ethoxy)-phenyl]-3-methyl-1,3-dihydro-imidazo[4,5-c]quinolin-2-one], for which the solubility in the data set “Solubility at pH 6.8” (setting [4]) is 9 µg/mL (≈ 18.5 µM). The IC50 at PI3K beta amounted to 239 nM; in data set [1], 44 nM; in data set [2], 43 nM; in data set [3], 155 nM.

In turn, `Cc1nn(C)cc1-n1c(=O)n(C)c2cnc3ccc(-c4cccc(O)c4)cc3c21` [Example 32.1, 1-(1,3-Dimethyl-1H-pyrazol-4-yl)-8-(3-hydroxy-phenyl)-3-methyl-1,3-dihydro-imidazo[4,5-c]quinolin-2-one] gave a solubility in the data set “Solubility at pH 6.8” (pH 6.8) of 2 µg/mL (≈ 5.19 µM). Also, the half-maximal inhibitory concentration (IC50) at PI3K beta turned out to be 43 nM; in data set [1], 85 nM; in data set [2], 110 nM; in data set [3] it was 193 nM.

With `Cc1nn(C)cc1-n1c(=O)n(C)c2cnc3ccc(-c4cccc5c4OC(F)(F)O5)cc3c21` [Example 35, 8-(2,2-Difluoro-benzo[1,3]dioxol-4-yl)-1-(1,3-dimethyl-1H-pyrazol-4-yl)-3-methyl-1,3-dihydro-imidazo[4,5-c]quinolin-2-one], in “Solubility at pH 6.8” (setting [4]), the solubility is 3 µg/mL (≈ 6.68 µM). The IC50 stood at 37 nM at PI3K beta, 8 nM in data set [1], 10 nM in data set [2] and 22 nM in data set [3].

Consider `Cc1nn(C)cc1-n1c(=O)n(C)c2cnc3ccc(-c4ccccc4)cc3c21` [Example 37.1, 1-(1,3-Dimethyl-1H-pyrazol-4-yl)-3-methyl-8-phenyl-1,3-dihydro-imidazo[4,5-c]quinolin-2-one], for which the solubility in “Solubility at pH 6.8” (setting [4]) was 3 µg/mL (≈ 8.12 µM). The 50% inhibitory concentration (IC50) came out at 970 nM at PI3K beta, 98 nM in data set [1], 135 nM in data set [2] and 219 nM in data set [3].

For the compound `Cc1nn(C)cc1-n1c(=O)n(C)c2cnc3ccc(-c4cccc(S(C)(=O)=O)c4)cc3c21` [Example 40, 1-(1,3-Dimethyl-1H-pyrazol-4-yl)-8-(3-methanesulfonyl-phenyl)-3-methyl-1,3-dihydro-imidazo[4,5-c]quinolin-2-one], in the data set “Solubility at pH 6.8” (pH 6.8), the solubility stood at 2 µg/mL (≈ 4.47 µM). The IC50 at PI3K beta worked out at 34 nM; in data set [1] it was 77 nM; in data set [2], 65 nM; in data set [3], 138 nM.

For `Cc1nn(C)cc1-n1c(=O)n(C)c2cnc3ccc(-c4ccc(C(N)=O)cc4)cc3c21` [Example 41, 4-[1-(1,3-Dimethyl-1H-pyrazol-4-yl)-3-methyl-2-oxo-2,3-dihydro-1H-imidazo[4,5-c]quinolin-8-yl]-benzamide], in “Solubility at pH 6.8” (setting [4]), the solubility is 14 µg/mL (≈ 33.9 µM). For the same compound, the IC50 on PI3K beta worked out at 112 nM; in data set [1] it was 48 nM; in data set [2], 37 nM; in data set [3], 92 nM.

As to `Cc1nn(C)cc1-n1c(=O)n(C)c2cnc3ccc(-c4cccc(C(N)=O)c4)cc3c21` [Example 46, 3-[1-(1,3-Dimethyl-1H-pyrazol-4-yl)-3-methyl-2-oxo-2,3-dihydro-1H-imidazo[4,5-c]quinolin-8-yl]-benzamide], in the data set “Solubility at pH 6.8” (setting [4]), the solubility worked out at 8 µg/mL (≈ 19.4 µM). The IC50 on PI3K beta came out at 563 nM; in data set [1] it was 214 nM; in data set [2], 541 nM; in data set [3], 489 nM.

With `Cc1nn(C)cc1-n1c(=O)n(C)c2cnc3ccc(-c4ccc5c(c4)CC(=O)N5)cc3c21` [Example 49, 1-(1,3-Dimethyl-1H-pyrazol-4-yl)-3-methyl-8-(2-oxo-2,3-dihydro-1H-indol-5-yl)-1,3-dihydro-imidazo[4,5-c]quinolin-2-one], in the data set “Solubility at pH 6.8” (setting [4]), the solubility was found to be 33 µg/mL (≈ 77.7 µM). The IC50 on PI3K beta came out at 506 nM; in data set [1], 51 nM; in data set [2], 152 nM; in data set [3] it was 442 nM.

With `Cc1nn(C)cc1-n1c(=O)n(C)c2cnc3ccc(-c4cccc(S(=O)(=O)N(C)C)c4)cc3c21` [Example 53.1, 3-[1-(1,3-Dimethyl-1H-pyrazol-4-yl)-3-methyl-2-oxo-2,3-dihydro-1H-imidazo[4,5-c]quinolin-8-yl]-N,N-dimethyl-benzenesulfonamide], the solubility in the data set “Solubility at pH 6.8” (setting [4]) was found to be 3 µg/mL (≈ 6.3 µM). Moreover, the IC50 at PI3K beta turned out to be 51 nM; in data set [1] it was 15 nM; in data set [2], 43 nM; in data set [3] it was 128 nM.

On to `COCc1cncc(-c2ccc3ncc4c(c3c2)n(-c2cn(C)nc2C)c(=O)n4C)c1` [Example 54.1, 1-(1,3-Dimethyl-1H-pyrazol-4-yl)-8-(5-methoxymethyl-pyridin-3-yl)-3-methyl-1,3-dihydro-imidazo[4,5-c]quinolin-2-one], for which the solubility in the data set “Solubility at pH 6.8” (setting [4]) was determined as 164 µg/mL (≈ 396 µM). In addition, the IC50 stood at 28 nM on PI3K beta, 95 nM in data set [1], 92 nM in data set [2] and 112 nM in data set [3].

As to `CCOc1cncc(-c2ccc3ncc4c(c3c2)n(-c2cn(C)nc2Cl)c(=O)n4C)c1` [Example 56.4, 1-(3-Chloro-1-methyl-1H-pyrazol-4-yl)-8-(5-ethoxy-pyridin-3-yl)-3-methyl-1,3-dihydro-imidazo[4,5-c]quinolin-2-one], the solubility in the data set “Solubility at pH 6.8” (setting [4]) is 14 µg/mL (≈ 32.2 µM). For the same compound, the concentration for half-maximal inhibition (IC50) at PI3K beta was found to be 6 nM; in data set [1] it was 9 nM; in data set [2], 11 nM; in data set [3] it was 11 nM.

Turning to `Cc1nn(C)cc1-n1c(=O)n(C)c2cnc3ccc(-c4cncc(OC(C)C)c4)cc3c21` [Example 58.1, 1-(1,3-Dimethyl-1H-pyrazol-4-yl)-8-(5-isopropoxy-pyridin-3-yl)-3-methyl-1,3-dihydro-imidazo[4,5-c]quinolin-2-one], the solubility in the data set “Solubility at pH 6.8” (setting [4]) was more than 428 µg/mL. Further, the 50% inhibitory concentration (IC50) came out at 7 nM at PI3K beta, 21 nM in data set [1], 30 nM in data set [2] and 43 nM in data set [3].

On to `CCN(C)C(=O)Cn1cc(-n2c(=O)n(C)c3cnc4ccc(-c5cncc(OC(C)C)c5)cc4c32)c(C)n1` [Example 58.5, N-Ethyl-2-{4-[8-(5-isopropoxy-pyridin-3-yl)-3-methyl-2-oxo-2,3-dihydro-imidazo[4,5-c]quinolin-1-yl]-3-methyl-pyrazol-1-yl}-N-methyl-acetamide], for which the solubility in the data set “Solubility at pH 6.8” (setting [4]) was 466 µg/mL (≈ 907 µM). Further, the concentration for half-maximal inhibition (IC50) on PI3K beta is 69 nM; in data set [1], 53 nM; in data set [2], 102 nM; in data set [3], 357 nM.

Take `COc1ncc(-c2ccc3ncc4c(c3c2)n(-c2cn(C)nc2C)c(=O)n4C)cc1NC(C)=O` [Example 64, N-{5-[1-(1,3-Dimethyl-1H-pyrazol-4-yl)-3-methyl-2-oxo-2,3-dihydro-1H-imidazo[4,5-c]quinolin-8-yl]-2-methoxy-pyridin-3-yl}-acetamide]: the solubility in “Solubility at pH 6.8” (setting [4]) is 3 µg/mL (≈ 6.56 µM). The IC50 on PI3K beta came out at 322 nM; in data set [1], 12 nM; in data set [2], 24 nM; in data set [3], 157 nM.

`COc1ncc(-c2ccc3ncc4c(c3c2)n(-c2cn(C)nc2C)c(=O)n4C)cc1[N+](=O)[O-]` [Example 66, 1-(1,3-dimethyl-1H-pyrazol-4-yl)-8-(6-methoxy-5-nitro-pyridin-3-yl)-3-methyl-1,3-dihydro-imidazo[4,5-c]quinolin-2-one] displayed a solubility in “Solubility at pH 6.8” (pH 6.8) of 2 µg/mL (≈ 4.49 µM). Moreover, the IC50 on PI3K beta amounted to 56 nM; in data set [1] it was 96 nM; in data set [2], 86 nM; in data set [3], 176 nM.
